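How tested: cells in 96-well plates exposed to compound for 48 hours at five concentrations. TGI: total growth inhibition.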
How the values were obtained:
Experiment in all cases: NCI tumour cell line growth inhibition, 48 h
[1] = test system: A549 NSCLC
[2] = test system: DU-145 prostate
[3] = test system: KM12 colon
[4] = test system: NCI-H226 lung
[5] = test system: SF-539 CNS
[6] = test system: SN12C renal
[7] = test system: SNB-19 CNS
[8] = test system: CCRF-CEM leukemia
[9] = test system: PC-3 prostate

| Compound | TGI [1] [µM] | TGI [2] [µM] | TGI [3] [µM] | TGI [4] [µM] | TGI [5] [µM] | TGI [6] [µM] | TGI [7] [µM] | TGI [8] [µM] | TGI [9] [µM] |
| --- | --- | --- | --- | --- | --- | --- | --- | --- | --- |
| COc1cccc(/C=C2\S/C(=N/Nc3nc(C)c(C)s3)NC2=O)c1O | > 100 | > 100 | > 100 | > 100 | > 100 | > 100 | > 100 |  |  |
| CN(C)N1C(=O)S/C(=C\c2ccc([N+](=O)[O-])cc2)C1=O | > 100 | > 100 | > 100 | > 100 | > 100 | > 100 |  | > 100 | > 100 |
| Cc1ccc2c(=O)cc(-c3ccc(C)s3)[nH]c2n1 | > 33.8 | > 55.4 | 15.9 | 2.45 | 0.972 | > 55.9 | > 100 |  | > 44.9 |
| CSc1ccc(Nc2cc(=O)[nH]c(=O)[nH]2)cc1 | > 100 | > 100 |  | > 100 | > 100 | > 100 | > 100 | > 100 | > 100 |
| C=C(C(=O)OC)[C@@H]1C[C@@H](OC(C)=O)C2=C[C@H](C[C@@]3(C)O[C@@H]3C3=CC(C)=C(O3)[C@H]1OC(C)=O)OC2=O | > 100 | > 100 | 43.7 | > 100 | 79 | 56.8 | > 100 |  | > 100 |
| COc1ccc(-c2c3c(n(C4OC(CO)C(O)C(O)C4O)c(=S)c2C#N)CCCC3)cc1 (stereo not given) | > 100 |  | > 100 | > 100 | > 100 | > 100 |  | > 100 | > 100 |
| C=C1C(=O)O[C@H]2C1C[C@@H](OC(C)=O)/C(C)=C/CC[C@@]1(C)O[C@H]21 (stereo not given in full) | > 100 | 27.8 | 44.2 |  |  | 29.2 | 78 | 4.75 | 31.3 |
| CC(=O)NC(NCCN)(c1ccccc1)c1ccccc1 | > 100 | > 100 | > 100 | > 100 | > 100 | > 100 | > 100 | > 100 |  |
| O=C(N/N=C/c1cc(Br)cc(Br)c1[O-])c1ccccc1O.O=C(N/N=C/c1cc(Br)cc(Br)c1[O-])c1ccccc1O.[Zn+2] | 21.6 |  | 15.9 | 3.19 | 10.7 |  | 12.2 |  |  |
| CCCCCc1c(CCCC)c(=O)[nH]c2nc(NC(=O)CCCC)ccc12 | > 100 |  | > 100 | > 100 | > 100 | > 100 | > 100 | > 100 | > 100 |
| O=C(CSCC(=O)N/N=C\c1cccc([N+](=O)[O-])c1)N/N=C\c1cccc([N+](=O)[O-])c1 | > 100 | > 100 | > 100 | > 100 | 84.7 | > 100 | > 100 | > 100 |  |
| Nc1ncnc2c1ncn2C1CCC(CP(=O)(O)O)C1 (stereo not given) | > 100 | > 100 | > 100 | > 100 | > 100 | > 100 | > 100 |  | > 100 |

From PubChem BioAssay (NCI)
